The numbers were not newly measured in US20240156808A1, “Compositions and methods to improve the therapeutic benefit of suboptimally chemical compounds and biological therapies including substituted camptothecins such as irinotecan and topotecan for the treatment of benign and neoplastic hyperproliferative disease conditions, infections, inflammatory and …” (Edison Oncology, priority 2021, published 2024), which cites them from elsewhere.

The target in one data set is T1, CES2 (Homo sapiens, UniProt O00748).
T1 sequence (O00748 27-559): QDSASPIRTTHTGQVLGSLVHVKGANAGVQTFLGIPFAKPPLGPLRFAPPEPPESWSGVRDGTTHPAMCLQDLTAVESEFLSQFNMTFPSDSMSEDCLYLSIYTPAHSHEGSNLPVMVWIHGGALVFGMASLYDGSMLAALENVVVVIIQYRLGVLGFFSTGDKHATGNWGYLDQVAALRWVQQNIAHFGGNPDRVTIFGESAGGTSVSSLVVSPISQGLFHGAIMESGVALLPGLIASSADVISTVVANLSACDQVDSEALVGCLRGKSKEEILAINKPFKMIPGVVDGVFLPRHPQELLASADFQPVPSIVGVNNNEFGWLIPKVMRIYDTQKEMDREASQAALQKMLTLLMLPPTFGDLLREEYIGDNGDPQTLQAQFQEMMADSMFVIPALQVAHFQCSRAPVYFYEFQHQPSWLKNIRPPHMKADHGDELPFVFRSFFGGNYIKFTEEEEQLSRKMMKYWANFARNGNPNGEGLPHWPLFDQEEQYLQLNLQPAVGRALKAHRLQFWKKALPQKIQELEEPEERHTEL
Particulars: CES2 versus CES1.

Molecules are shown by their SMILES.

On to `CCc1c2c(nc3ccc(O)cc13)-c1cc3c(c(=O)n1C2)COC(=O)[C@]3(O)CC` [SN-38], for which the elimination half-life (SN-38) is 6 to 32 h. Further, where the note is “after infusion”, the “time to peak plasma concentration” value is given as “two”. Moreover, the distribution half-life entry (in vivo) is given as “about 8 minutes”.
Turning to `CCc1c2c(nc3ccc(OC(=O)N4CCC(N5CCCCC5)CC4)cc13)-c1cc3c(c(=O)n1C2)COC(=O)[C@]3(O)CC` [irinotecan, (S)-4,11-diethyl-3,4,12,14-tetrahydro-4-hydroxy-3,14-dioxo1H-pyrano[3′,4′:6,7]-indolizino[1,2-b]quinolin-9-yl-[1,4′bipiperidine]-1′-carboxylate], for the setting “in the liver by CES1 and CES2, also in plasma by butyrylcholinesterase”, the “fraction of irinotecan hydrolyzed to SN-38” value is given as 2-5%. The “affinity of CES2 for irinotecan relative to CES1” value at CES2 is 12.5 fold.
